Reference: patent publication US20230339939A1 (Bayer Aktiengesellschaft, priority 2020, published 2023)

Tests used:
CSNK1A1 = CSNK1A1 (Homo sapiens (Human), UniProt P48729); assay: CSNK1A1 High ATP Assay (ADP-Glo, 1 mM ATP); assay type: biochemical; details: median, read-out: CSNK1A1 high ATP assay IC50 [mol/l] (median)
Protocol: CSNK1A1-inhibitory activity of compounds of the present invention in presence of 1 mM adenosine-tri-phosphate (ATP) was quantified employing the CSNK1A1-high-ATP-assay as described in the following paragraphs. In essence, the enzyme activity is measured by quantification of the adenosine-di-phosphate (ADP), which is generated as a co-product of the enzyme reaction, via the “ADP-Glo™ Kinase Assay” kit from the company Promega. This detection system works as follows: In a first step the ATP not consumed in the kinase reaction is quantitatively converted to cAMP employing an adenylate cyclase (“ADP-Glo-reagent”), then the adenylate cyclase is stopped and the ADP generated in the kinase reaction converted to ATP which generates in a luciferase-based reaction a glow-luminescence signal (“Kinase Detection Reagent”).
(§1) Recombinant fusion protein of N-terminal Glutathion-S-Transferase (GST) and full-length human CSNK1A1, expressed by baculovirus infected insect cells and purified via Glutathion affinity chromatography, was purchased from Life Technologies (product no. PV4174) and used as enzyme. As substrate for the kinase reaction the biotinylated peptide biotin-Ahx-KRRRAL-pS-VASLPGL (C-terminus in amide form) was used which can be purchased e.g. from the company Biosyntan (Berlin-Buch, Germany).
For the assay 50 nl of a 100 fold concentrated solution of the test compound in DMSO was pipetted into a white low volume 384-well microtiter plate (Greiner Bio-One, Frickenhausen, Germany), 2 μL of a solution of CSNK1A1 in aqueous assay buffer [50 mM HEPES pH 7.5, 10% (v/v) glycerol, 10 mM MgCl2, 50 mM NaCl, 1 mM dithiothreitol, 0.01% (w/v) bovine serum albumin, 0.01% (v/v) Triton X-100] were added and the mixture was incubated for 15 min at 22° C. to allow pre-binding of the test compounds to the enzyme before the start of the kinase reaction. […] The concentration of CSNK1A1 was adjusted depending of the activity of the enzyme lot and was chosen appropriate to have the assay in the linear range, a typical concentration is about 0.4 ng/μL. The reaction was stopped by the addition of 2.5 μL of “ADP-Glo-reagent” (1:1.5 fold diluted with water) and the resulting mixture was incubated at 22° C. for 1 h to convert the ATP not consumed in the kinase reaction completely […]. Subsequently 2.5 μL of the “kinase detection reagent” (1.2 fold more concentrated than recommended by the producer) were added, the resulting mixture was incubated at 22° C. for 1 h and then the luminescence measured with a suitable measurement instrument (e.g. Viewlux™ from Perkin-Elmer). The amount of emitted light was taken as a measure for the amount of ADP generated and thereby for the activity of the CSNK1A1.

CSNK1D = CSNK1D (Homo sapiens (Human), UniProt P48730); assay: CSNK1D Assay (ADP-Glo, 1 μM ATP); assay type: biochemical; details: median, read-out: CSNK1D IC50 [mol/l] (median)
Sequence of CSNK1D (P48730 whole entry): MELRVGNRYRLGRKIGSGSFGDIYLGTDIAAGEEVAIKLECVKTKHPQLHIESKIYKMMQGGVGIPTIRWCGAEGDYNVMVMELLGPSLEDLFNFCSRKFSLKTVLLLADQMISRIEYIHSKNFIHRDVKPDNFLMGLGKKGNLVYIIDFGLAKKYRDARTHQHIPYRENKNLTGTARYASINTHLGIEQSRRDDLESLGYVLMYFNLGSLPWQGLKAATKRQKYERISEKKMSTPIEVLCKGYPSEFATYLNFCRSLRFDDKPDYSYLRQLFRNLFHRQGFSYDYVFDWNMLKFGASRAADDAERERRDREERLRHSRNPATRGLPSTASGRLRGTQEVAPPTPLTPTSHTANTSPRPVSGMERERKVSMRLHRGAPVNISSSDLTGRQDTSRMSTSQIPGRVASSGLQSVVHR
Protocol: CSNK1D-inhibitory activity of compounds of the present invention in presence of 1 μM adenosine-tri-phosphate (ATP) was quantified employing the CSNK1 D assay as described in the following paragraphs. In essence, the enzyme activity is measured by quantification of the adenosine-di-phosphate (ADP), which is generated as a co-product of the enzyme reaction, via the “ADP-Glo™ Kinase Assay” kit from the company Promega. This detection system works as follows: In a first step the ATP not consumed in the kinase reaction is quantitatively converted to cAMP employing an adenylate cyclase (“ADP-Glo-reagent”), then the adenylate cyclase is stopped and the ADP generated in the kinase reaction converted to ATP which generates in a luciferase-based reaction a glow-luminescence signal (“Kinase Detection Reagent”).
as §1, with “CSNK1D,” for “CSNK1A1,”, “PV3665)” for “PV4174)”, “Btn-Ahx-[…]” for “biotin-Ahx-KRRRAL-pS-VASLPGL”
For the assay 50 nl of a 100 fold concentrated solution of the test compound in DMSO was pipetted into a white 1536-well microtiter plate (Greiner Bio-One, Frickenhausen, Germany), 2 μL of a solution of CSNK1D in aqueous assay buffer [50 mM HEPES pH 7.5, 10% (v/v) glycerol, 10 mM MgCl2, 50 mM NaCl, 1 mM dithiothreitol, 0.01% (w/v) bovine serum albumin, 0.01% (v/v) Triton X-100] were added and the mixture was incubated for 15 min at 22° C. to allow pre-binding of the test compounds to the enzyme before the start of the kinase reaction. […] The concentration of CSNK1D was adjusted depending of the activity of the enzyme lot and was chosen appropriate to have the assay in the linear range, a typical concentration is about 0.5 ng/μL. The reaction was stopped by the addition of 2.5 μL of “ADP-Glo-reagent” (1:1.5 fold diluted with water) and the resulting mixture was incubated at 22° C. for 1 h to convert the ATP not consumed in the kinase reaction completely […]. Subsequently 2.5 μL of the “kinase detection reagent” (1.2 fold more concentrated than recommended by the producer) were added, the resulting mixture was incubated at 22° C. for 1 h and then the luminescence measured with a suitable measurement instrument (e.g. Viewlux™ from Perkin-Elmer). The amount of emitted light was taken as a measure for the amount of ADP generated and thereby for the activity of the CSNK1D.

Sequence of CSNK1A1 (P48729 whole entry): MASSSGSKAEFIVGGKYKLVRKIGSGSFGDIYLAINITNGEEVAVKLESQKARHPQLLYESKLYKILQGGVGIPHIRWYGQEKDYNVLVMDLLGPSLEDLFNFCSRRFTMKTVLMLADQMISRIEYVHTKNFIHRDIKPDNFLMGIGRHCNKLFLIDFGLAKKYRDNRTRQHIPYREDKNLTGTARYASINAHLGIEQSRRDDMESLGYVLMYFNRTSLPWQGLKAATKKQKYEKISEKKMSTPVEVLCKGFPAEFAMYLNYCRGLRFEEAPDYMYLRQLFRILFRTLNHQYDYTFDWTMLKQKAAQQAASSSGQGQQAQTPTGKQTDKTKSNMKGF

## CC(C(=O)Nc1cc(-c2[nH]c3ccc(F)nc3c2-c2ccccn2)ccn1)c1ccc(F)cc1 (racemic) [Example 1, 2-(4-fluorophenyl)-N-{4-[5-fluoro-3-(pyridin-2-yl)-1H-pyrrolo[3,2-b]pyridin-2-yl]pyridin-2-yl}propanamide]
CSNK1A1
  IC50: 0.016 µM
CSNK1D
  IC50: 0.00458 µM

## CC(C(=O)Nc1cc(-c2[nH]c3cccnc3c2-c2ccccn2)ccn1)c1ccc(F)cc1 (racemic) [Example 6, 2-(4-fluorophenyl)-N-{4-[3-(pyridin-2-yl)-1H-pyrrolo[3,2-b]pyridin-2-yl]pyridin-2-yl}propanamide]
CSNK1A1
  IC50: 0.00847 µM
CSNK1D
  IC50: 0.00337 µM

## CC(C(=O)Nc1cc(-c2[nH]c3cccnc3c2-c2ccccc2)ccn1)c1ccc(F)cc1 (racemic) [Example 11, 2-(4-fluorophenyl)-N-[4-(3-phenyl-1H-pyrrolo[3,2-b]pyridin-2-yl)pyridin-2-yl]propanamide]
CSNK1A1
  IC50: 0.321 µM
CSNK1D
  IC50: 0.00702 µM

## Cc1cc2[nH]c(-c3ccnc(NC(=O)C(C)c4ccc(F)cc4)c3)c(-c3ccccn3)c2nc1F (racemic) [Example 28, N-{4-[5-fluoro-6-methyl-3-(pyridin-2-yl)-1H-pyrrolo[3,2-b]pyridin-2-yl]pyridin-2-yl}-2-(4-fluorophenyl)propanamide]
CSNK1A1
  IC50: 0.0591 µM
CSNK1D
  IC50: 0.0113 µM

## COCC(C(=O)Nc1cc(-c2[nH]c3cccnc3c2-c2ccccn2)ccn1)c1ccc(F)cc1 (racemic) [Example 43, (2RS)-2-(4-fluorophenyl)-3-methoxy-N-(4-(3-(pyridin-2-yl)-1H-pyrrolo[3,2-b]pyridin-2-yl)pyridin-2-yl)propanamide]
CSNK1A1
  IC50: 0.0401 µM
CSNK1D
  IC50: 0.00646 µM

## COCCC(C(=O)Nc1cc(-c2[nH]c3cccnc3c2-c2ccccn2)ccn1)c1ccc(F)cc1 (racemic) [Example 44]
CSNK1A1
  IC50: 0.0592 µM
CSNK1D
  IC50: 0.00984 µM

## COCC(C(=O)Nc1cc(-c2[nH]c3cc(F)cnc3c2-c2ccccn2)ccn1)c1ccc(F)cc1 (racemic) [Example 45, (2RS)-2-(4-fluorophenyl)-N-[4-[6-fluoro-3-(2-pyridyl)-1H-pyrrolo[3,2-b]pyridin-2-yl]-2-pyridyl]-3-methoxy-propanamide]
CSNK1A1
  IC50: 0.0388 µM
CSNK1D
  IC50: 0.012 µM

## CC(C(=O)Nc1cc(-c2[nH]c3ccc(F)nc3c2-c2ccccn2)ccn1)c1ccc(F)cc1 (single isomer, unassigned; (+)) [Example 3, (+)-2-(4-fluorophenyl)-N-{4-[5-fluoro-3-(pyridin-2-yl)-1H-pyrrolo[3,2-b]pyridin-2-yl]pyridin-2-yl}propanamide]
CSNK1A1
  IC50: 0.012 µM
CSNK1D
  IC50: 0.00287 µM

## CC(C(=O)Nc1cc(-c2[nH]c3cccnc3c2-c2ccccn2)ccn1)c1ccc(F)cc1 (single isomer, unassigned; (+)) [Example 7, (+)-2-(4-fluorophenyl)-N-{4-[3-(pyridin-2-yl)-1H-pyrrolo[3,2-b]pyridin-2-yl]pyridin-2-yl}propanamide]
CSNK1A1
  IC50: 0.00432 µM
CSNK1D
  IC50: 0.0021 µM

## CC(C)C(C(=O)Nc1cc(-c2[nH]c3ccc(F)nc3c2-c2ccccn2)ccn1)c1ccc(F)cc1 (single isomer, unassigned; (+)) [Example 26, (+)-2-(4-fluorophenyl)-N-{4-[5-fluoro-3-(pyridin-2-yl)-1H-pyrrolo[3,2-b]pyridin-2-yl]pyridin-2-yl}-3-methylbutanamide]
CSNK1A1
  IC50: 0.0486 µM
CSNK1D
  IC50: 0.00762 µM

## Cc1cc2[nH]c(-c3ccnc(NC(=O)C(C)c4ccc(F)cc4)c3)c(-c3ccccn3)c2nc1F (single isomer, unassigned; (+)) [Example 29, (+)-N-{4-[5-fluoro-6-methyl-3-(pyridin-2-yl)-1H-pyrrolo[3,2-b]pyridin-2-yl]pyridin-2-yl}-2-(4-fluorophenyl)propanamide]
CSNK1A1
  IC50: 1.14 µM
CSNK1D
  IC50: 0.0302 µM

## CC(C(=O)Nc1cc(-c2[nH]c3ccc(F)nc3c2-c2ccccn2)ccn1)c1ccc(F)cc1 (single isomer, unassigned; (-)) [Example 2, (−)-2-(4-fluorophenyl)-N-{4-[5-fluoro-3-(pyridin-2-yl)-1H-pyrrolo[3,2-b]pyridin-2-yl]pyridin-2-yl}propanamide]
CSNK1A1
  IC50: 0.886 µM
CSNK1D
  IC50: 0.0322 µM

## CC(C(=O)Nc1cc(-c2[nH]c3cccnc3c2-c2ccccn2)ccn1)c1ccc(F)cc1 (single isomer, unassigned; (-)) [Example 8, (−)-2-(4-fluorophenyl)-N-{4-[3-(pyridin-2-yl)-1H-pyrrolo[3,2-b]pyridin-2-yl]pyridin-2-yl}propanamide]
CSNK1A1
  IC50: 0.334 µM
CSNK1D
  IC50: 0.0146 µM

## CC(C)C(C(=O)Nc1cc(-c2[nH]c3ccc(F)nc3c2-c2ccccn2)ccn1)c1ccc(F)cc1 (single isomer, unassigned; (-)) [Example 25, (−)-2-(4-fluorophenyl)-N-{4-[5-fluoro-3-(pyridin-2-yl)-1H-pyrrolo[3,2-b]pyridin-2-yl]pyridin-2-yl}-3-methylbutanamide]
CSNK1A1
  IC50: 2.32 µM
CSNK1D
  IC50: 0.0563 µM

## Cc1cc2[nH]c(-c3ccnc(NC(=O)C(C)c4ccc(F)cc4)c3)c(-c3ccccn3)c2nc1F (single isomer, unassigned; (-)) [Example 30, (−)-N-{4-[5-fluoro-6-methyl-3-(pyridin-2-yl)-1H-pyrrolo[3,2-b]pyridin-2-yl]pyridin-2-yl}-2-(4-fluorophenyl)propanamide]
CSNK1A1
  IC50: 0.0237 µM
CSNK1D
  IC50: 0.00465 µM

## O=C(Cc1ccc(F)cc1)Nc1cc(-c2[nH]c3ccc(F)nc3c2-c2ccccn2)ccn1 [Example 4, 2-(4-fluorophenyl)-N-{4-[5-fluoro-3-(pyridin-2-yl)-1H-pyrrolo[3,2-b]pyridin-2-yl]pyridin-2-yl}acetamide]
CSNK1A1
  IC50: 0.00572 µM
CSNK1D
  IC50: 0.00233 µM

## O=C(Cc1ccc(F)cc1)Nc1cc(-c2[nH]c3cccnc3c2-c2ccccn2)ccn1 [Example 5, 2-(4-fluorophenyl)-N-{4-[3-(pyridin-2-yl)-1H-pyrrolo[3,2-b]pyridin-2-yl]pyridin-2-yl}acetamide]
CSNK1A1
  IC50: 0.0061 µM
CSNK1D
  IC50: 0.00268 µM

## O=C(Cc1ccc(F)cc1)Nc1cc(-c2[nH]c3cc(F)cnc3c2-c2ccccn2)ccn1 [Example 9, 2-(4-fluorophenyl)-N-{4-[6-fluoro-3-(pyridin-2-yl)-1H-pyrrolo[3,2-b]pyridin-2-yl]pyridin-2-yl}acetamide]
CSNK1A1
  IC50: 0.0336 µM
CSNK1D
  IC50: 0.00476 µM

## O=C(Cc1ccc(F)cc1)Nc1cc(-c2[nH]c3cc(F)cnc3c2-c2ccccc2)ccn1 [Example 10, 2-(4-fluorophenyl)-N-[4-(6-fluoro-3-phenyl-1H-pyrrolo[3,2-b]pyridin-2-yl)pyridin-2-yl]acetamide]
CSNK1A1
  IC50: 0.302 µM
CSNK1D
  IC50: 0.00427 µM
